Experimental findings from patent publication US20210290597A1, “METHOD OF TREATING A CONDITION ASSOCIATED WITH NEURODEGENERATION USING INHIBITORS OF OAT3” (Neuropore Therapies, Inc., priority 2018, published 2021) are described below.

As usually defined, the IC50 is the concentration needed to halve the response being measured. The term inhibition denotes how much of the control response was suppressed. High values mean strong suppression, low ones little suppression.

The structures appear in SMILES notation. Like-named read-outs stand apart in the source and are kept apart here.

For data set [1], the target named is T1, human transporter OAT3 (Homo sapiens, UniProt Q8TCC7).
T1 construct: expressed in transfected cells; host or cells: MDCK-II
T1 sequence (Q8TCC7 1-542): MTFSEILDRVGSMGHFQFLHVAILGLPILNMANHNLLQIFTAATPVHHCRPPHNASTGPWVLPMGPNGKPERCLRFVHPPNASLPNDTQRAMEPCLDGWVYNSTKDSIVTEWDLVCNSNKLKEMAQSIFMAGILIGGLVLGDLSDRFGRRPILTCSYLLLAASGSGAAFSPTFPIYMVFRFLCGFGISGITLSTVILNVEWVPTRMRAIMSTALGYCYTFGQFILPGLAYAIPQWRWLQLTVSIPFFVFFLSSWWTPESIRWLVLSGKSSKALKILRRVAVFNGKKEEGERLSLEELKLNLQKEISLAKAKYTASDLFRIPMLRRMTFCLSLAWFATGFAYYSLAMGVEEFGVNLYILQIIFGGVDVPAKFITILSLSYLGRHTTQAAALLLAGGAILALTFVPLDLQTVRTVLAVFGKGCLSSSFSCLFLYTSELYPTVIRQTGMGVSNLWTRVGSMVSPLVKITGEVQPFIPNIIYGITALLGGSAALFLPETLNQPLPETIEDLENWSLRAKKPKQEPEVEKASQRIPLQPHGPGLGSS
The experiment in a line: Further OAT3 uptake inhibition assay (Table 2). The data set is classed as cell-based. As to conditions: compound 0.03-10 μM. The procedure:
(§1) In a further assay, the effects of several other compounds (including compounds 2, 3, and 4) were assessed against OAT3. The assay was carried out using a similar procedure as described above, using para-aminohippurate (PAH) and estrone-3-sulfate (E3S) as the substrates for measuring OAT3-mediated transport. […] MDCK-II cells were grown in 96-well cell culture plates, and the cell plates are maintained at 37° C. in 5% CO2 atmosphere prior to initiation of the transport experiment. MDCK-II cells were maintained in DMEM with low glucose and 10% FBS. Cells passages up to 40 are seeded at 60K±10K cells/well on 96-well, transwell membrane plates approximately 24 hours before transfection. Transport assays were carried out approximately 48 hours after transfection. Radio-labeled para-aminohippurate ([3H]-PAH) and estrone-3-sulfate (E3S) were used as substrates for measuring OAT3-mediated transport, where the transport of the substrate was determined by radiometric detection. Probenecid was used as a reference inhibitor. Transport study samples were run in triplicate.
(§2) For uptake assays, the net transporter-mediated uptake rate (V) of the substrate by each SLC transporter was calculated as follows:
(§3) Transporter-mediated uptake rate(pmol/min/cm^2)=((Cellular accumulation in cells expressing the transporter)−(Mean cellular accumulation in control cells))/Incubation time.
(§4) Percent inhibition was calculated by dividing the transporter-mediated uptake rate in presence of the test article or the reference inhibitor by the transporter-mediated uptake rate in presence of vehicle control:
(§5) Percent inhibition=100−(100×(transporter-mediated uptake rate)with inhibitor/(transporter-mediated uptake rate)vehicle control)
(§6) For uptake assays, statistical analyses using an unpaired t test was performed between transporter-mediated uptake rate or ATP-dependent transport rate of probe substrate with vehicle control and the inhibitor. A p value of <0.05 was considered statistically significant.
(§7) Table 2 summarizes the inhibitory activity of these compounds against OAT3 in the uptake of probe substrate PAH (p-aminohippurate) or E3S (estrone-3-sulfate). The percent inhibition values were determined by testing compounds at a single concentration of 1 μM with a PAH concentration of 10 μM. Data represent the mean and standard deviation of triplicate samples. The IC50 values were calculated by means of a concentration response curve with a compound concentration range of 0.03-10 μM and a probe substrate concentration of 10 μM PAH or 0.1 μM E3S. The percent inhibition at the various concentrations was run in triplicate and the IC50 value was determined by non-linear regression using GraphPad Prism.

Data set [2] addresses T2, OAT3 (Homo sapiens, UniProt Q8TCC7).
T2 construct: expressed in transfected cells; host or cells: MDCK-II
T2 sequence (Q8TCC7 1-542): T1 sequence (Q8TCC7 1-542)
In words: Further OAT3 uptake inhibition assay (Table 2). The data set is classed as cell-based. As to conditions: human, MDCK-II cells expressing human OAT3, probe 10 μM PAH (p-aminohippurate); compound 1 μM; PAH 10 μM; mean and SD of triplicate. The procedure: as §1, §2, §3, §4, §5, §6, §7

In data set [3] the test system is dopaminergic (DAT) transporter. In words: DAT immunolabeling in striatum, L61 ASYN transgenic mice. The data set is classed as in vivo. As to conditions: 3 months. On the procedure:
The harvested brain tissues were drop fixed using 4% PFA and sectioned on a vibratome, and representative sections corresponding to the striatum and cerebellum were assessed for DAT with IHC staining.
Immunolabeling studies of DAT were conducted using a monoclonal antibody (1:500; MAB369; Millipore, Temecula, Calif.) and a biotinylated secondary antibody (1:100; BA4000, Vector Labs) and analysis was performed on blindcoded sections from Line 61 transgenic and non-transgenic mice. Slides were digitized using a high resolution automated Nanozoomer slide scanner (Hamamatsu Corp.). Digitized images were analyzed using Halo (Indica Labs) image analysis software package by placing an ROI frame within the dorsal striatum and another within a separate reference brain region (for normalization of DAT signal). A thresholding algorithm was defined and then applied equally to all images to determine the average optical density of DAT immunolabeling across each ROI The results of the analysis were then exported for graphing and statistical analysis and the striatal DAT:cortical (reference region) DAT optical densities ratio was calculated for each subject.
Quantification of DAT density was carried out by calculating the immunofluorescence in striatal sections against that in cerebellum sections to derive a striatal-to-reference ratio.

As to `O=S(=O)(c1ccc(-n2cn[nH]c2=S)cc1)c1ccc(Cl)c(C(F)(F)F)c1` [Compound 1, 4-(4-((4-chloro-3-(trifluoromethyl)phenyl)sulfonyl)phenyl)-2,4-dihydro-3H-1,2,4-triazole-3-thione], the IC50 in data set [1] (0.1 μM E3S, read-out: OAT3 inhibition substrate = E3S (IC50)) was found to be 0.891 µM; in data set [1] (10 μM PAH, read-out: OAT3 inhibition substrate = PAH (IC50)), 0.252 µM. The compound also registered an inhibition at 1 μM in data set [2] of 80.3%. For the same compound, the “striatal levels of DAT, staining intensity in representative images vs vehicle-treated L61 mice” value in data set [3] (5 mg/kg or 10 mg/kg daily) is “restoring striatal levels of DAT”. Also, the “DAT striatal-to-reference ratio, quantification (FIG. 24)” value in data set [3] (10 mg/kg daily) is reported as “reduces the GFAP levels in a statistically significant manner”.
